Results taken from US5952390A, “10-substituted 1,8-dihydroxy-9(10H) anthracenone pharmaceuticals” (Teva Pharmaceutical Industries Ltd., priority 1998, dated 1999).
Like-named read-outs stand apart in the source and are kept apart here.

Tests used:
[1] = Reducing activity toward DPPH; details: Table I (Addendum); equimolar amount of test compound
Experimental: This assay followed generally the procedures of Blois, M. S., "Antioxidant Determinations by the Use of a Stable Free Radical", Nature, 181, 1199-1200 (1958) and Kato, K. et al., "Studies on Scavengers of Active Oxygen Species. 1. Synthesis and Biological Activity of 2-O-Alkylascorbic Acids", J. Med. Chem., 31, 793-798 (1988). In time studies, 1 ml of test compound solution (10^-4 M) was added to 1 ml of DPPH solution (10^-4 M), each in acetone/PBS (1+1 V/V), and the reduction of DPPH was followed spectrophotometrically at 516 nm. Plots of the reciprocal of DPPH concentrations against time gave straight lines, and the second-orderrate constants were obtained from the slopes and are expressed as mean values (n=3-6). In the cases where DPPH was very fast approximate values are given and expressed as kDPPH >100 or kDPPH >>100M^-1s^-1.
Because a radical scavenging antioxidant reacts rapidly with the stable free radical 2,2-diphenyl-1-picrylhydrazyl (DPPH), Blois, M. S., "Antioxidant Determination by the Use of a Stable Free Radical", Nature, 181, 1199-1200 (1958); Kato, K. et al., "Studies on Scavengers of Active Oxygen Species. I. Synthesis and Biological Activity of 2-O-Alkylascorbic Acids", J. Med. Chem., 31, 793-798 (1988), the reactivities of the new compounds with DPPH were determined by decrease in absorbance at 516 nm.

[2] = Lipid peroxidation in bovine brain phospholipid liposomes; details: Table I (Addendum); n = 3 or more; standard errors average 20%; read-out: LPO IC50
Experimental: Phospholipids were prepared essentially as described by Gutteridge, J. M. C., "The Measurement of Malondialdehyde in Peroxidised Ox-Brain Phospholipid Liposomes", Anal. Biochem., 82, 76-82 (1977). Bovine brain, cooled on ice, was freed from blood vessels and washed repeatedly with 0.15M NaCl, pH 7.4. It was cut to pieces and then macerated with an ultra-turrax, passed through a close-meshed sieve, and extracted four times with four times the volume of acetone. The extraction mixture was filtered by suction to remove the acetone, the residue was dried under vacuum, and then repeatedly extracted with petroleum ether (40-60) using twice the volume of the original brain homogenate. The combined extracts were filtered, dried at 45° C., and dissolved in ether (one fifth of the original brain volume). The mixture was treated with five times the volume of acetone, and the resulting precipitate was collected by suction-filtration, dried and stored under N2 at -20° C. in the dark. Bovine brain phospholipids were weighed into glass tubes and shaken in a vortex mixer (Heidolph) in the presence of five small glass beads (.phi. 4 mm) for 1 min. […]
The following reagents were added to glass tubes in the order and at the final concentrations stated. […] The organic layer was separated by centrifugation at 3000 rpm (15 min) and the absorbance at 532 nm was measured against butanol.

[3] = biological target: T1, 5-LO in bovine PMNL (Bos taurus, UniProt F1MQ78); test: Bovine PMNL 5-lipoxygenase assay (inhibition of 5-HETE and LTB4 biosynthesis); type: cell-based; details: at 30 μM
T1 construct: endogenous in cells; host or cells: polymorphonuclear leukocytes isolated from bovine blood
T1 sequence (F1MQ78 1-674): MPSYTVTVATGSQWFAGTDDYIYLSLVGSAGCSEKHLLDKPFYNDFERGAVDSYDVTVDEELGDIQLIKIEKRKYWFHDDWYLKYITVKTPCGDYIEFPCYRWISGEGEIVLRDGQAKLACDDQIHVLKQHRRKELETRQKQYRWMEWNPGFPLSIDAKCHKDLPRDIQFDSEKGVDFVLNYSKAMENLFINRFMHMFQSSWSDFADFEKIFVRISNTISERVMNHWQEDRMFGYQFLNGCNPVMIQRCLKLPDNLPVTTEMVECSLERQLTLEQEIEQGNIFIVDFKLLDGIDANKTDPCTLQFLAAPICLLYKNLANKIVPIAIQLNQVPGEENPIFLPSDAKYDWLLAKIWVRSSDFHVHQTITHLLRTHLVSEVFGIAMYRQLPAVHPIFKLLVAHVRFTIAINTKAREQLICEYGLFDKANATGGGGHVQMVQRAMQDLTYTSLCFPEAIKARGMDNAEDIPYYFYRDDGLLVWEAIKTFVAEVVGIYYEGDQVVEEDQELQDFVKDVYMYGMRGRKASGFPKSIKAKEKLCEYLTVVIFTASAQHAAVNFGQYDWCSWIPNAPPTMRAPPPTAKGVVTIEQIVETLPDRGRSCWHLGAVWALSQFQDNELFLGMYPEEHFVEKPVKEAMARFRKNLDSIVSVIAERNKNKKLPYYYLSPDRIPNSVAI

[4] = system: skin; details: topical/therapeutic application; cited from earlier work

IC50 [2]: 4 µM
inhibition at 30 µM ([3]; PMNL, Table I (Addendum), read-out: 5-LO percent inhibition (value in parentheses)): 38%
inhibition at 30 µM ([3]; bovine PMNL, read-out: inhibition at 30 μM): 38%
Structure (SMILES): CCCC(=O)C1c2cccc(O)c2C(=O)c2c(O)cccc21 [Butantrone, 10-Butyryl-Dithranol]
kDPPH [1]: 7.0 ± 0.6 M⁻¹ s⁻¹
irritation, in words [4]: commonly elicits a widespread and delayed irritation effect
